Values quoted from earlier work, collected in US20200392379A1, “TRANSFER FILM, METHOD FOR MANUFACTURING LAMINATE, LAMINATE, CAPACITIVE INPUT DEVICE, AND IMAGE DISPLAY DEVICE” (FUJIFILM Corporation, priority 2018, published 2020).

SMILES	pKa of conjugate acid
Nc1nnn[nH]1 [5-Amino-1H-tetrazole]	1.29
Cc1ncc[nH]1 [2-Methylimidazole]	8.15
Sc1nc2ccccc2[nH]1 [2-Mercaptobenzimidazole]	2.38
Cc1cc(Cn2nnc3ccccc32)c(O)c(Cn2nnc3ccccc32)c1 [2,6-Bis[(1H-benzotriazol-1-yl)methyl]-4-methylphenol]	1.49
Sc1nc[nH]n1 [3-Mercapto-1,2,4-triazole]	1.30
Sc1nnnn1-c1ccccc1 [5-Mercapto-1-phenyl-1H-tetrazole]	−4.56
O=C(O)CC(Cn1nnc2ccccc21)C(=O)O (centres unmarked) [1-(2,3-Dicarboxypropyl)benzotriazole]	1.21
c1ccc2[nH]cnc2c1 [Benzimidazole]	5.67
O=C(O)CC(C(=O)O)n1nnc2ccccc21 (centres unmarked) [1-(1′,2′-Dicarboxyethyl)benzotriazole]	0.09
CCCCC(CC)CN(CC(CC)CCCC)Cn1nnc2ccccc21 (centres unmarked) [1-[N,N-bis(2-ethylhexyl)aminomethyl]benzotriazole]	6.68

Results, then the compound that gave them:

pKa of conjugate acid	SMILES
−1.09	Sc1nncs1 [2-Mercapto-1,3,4-thiadiazole]
−2.88	c1ccc(-c2nnn[nH]2)cc1 [5-Phenyl-1H-tetrazole]
1.17	c1ccc2[nH]nnc2c1 [1,2,3-Benzotriazole]
−2.11	Sc1nnc(S)s1 [1,3,4-Thiadiazole-2,5-dithiol]
−2.98	Cn1nnnc1S [1-Methyl-5-mercaptotetrazole]
3.02	Nc1ccc2[nH]c(S)nc2c1 [5-Amino-2-mercaptobenzimidazole]
2.12	CSc1nnc(N)s1 [2-Amino-5-methylthio-1,3,4-thiadiazole]
−1.32	CSc1nnc(S)s1 [2-Mercapto-5-methylthio-1,3,4-thiadiazole]
0.34	Nc1cnns1 [5-Amino-1,2,3-thiadiazole]
2.99	CSc1nc(N)n[nH]1 [3-Amino-5-methylthio-1H-1,2,4-triazole]
